Experimental data published in ChEMBL document CHEMBL5143660, “Investigation on the chemical space of the substituted triazole thio-benzoxazepinone RIPK1 inhibitors” (Eur J Med Chem, 2022).
The source made the active and inactive calls. No cut-off for these calls is given here.

Tests used:
[1] = target: T1, Receptor-interacting serine/threonine-protein kinase 1 (Homo sapiens, UniProt Q13546); experiment: Binding affinity to wild-type human partial length RIPK1 (M1 to K305 residues) expressed in bacterial expression system incubated for 1 hr under shaking condition by Kinomescan method
T1 sequence (Q13546 whole entry): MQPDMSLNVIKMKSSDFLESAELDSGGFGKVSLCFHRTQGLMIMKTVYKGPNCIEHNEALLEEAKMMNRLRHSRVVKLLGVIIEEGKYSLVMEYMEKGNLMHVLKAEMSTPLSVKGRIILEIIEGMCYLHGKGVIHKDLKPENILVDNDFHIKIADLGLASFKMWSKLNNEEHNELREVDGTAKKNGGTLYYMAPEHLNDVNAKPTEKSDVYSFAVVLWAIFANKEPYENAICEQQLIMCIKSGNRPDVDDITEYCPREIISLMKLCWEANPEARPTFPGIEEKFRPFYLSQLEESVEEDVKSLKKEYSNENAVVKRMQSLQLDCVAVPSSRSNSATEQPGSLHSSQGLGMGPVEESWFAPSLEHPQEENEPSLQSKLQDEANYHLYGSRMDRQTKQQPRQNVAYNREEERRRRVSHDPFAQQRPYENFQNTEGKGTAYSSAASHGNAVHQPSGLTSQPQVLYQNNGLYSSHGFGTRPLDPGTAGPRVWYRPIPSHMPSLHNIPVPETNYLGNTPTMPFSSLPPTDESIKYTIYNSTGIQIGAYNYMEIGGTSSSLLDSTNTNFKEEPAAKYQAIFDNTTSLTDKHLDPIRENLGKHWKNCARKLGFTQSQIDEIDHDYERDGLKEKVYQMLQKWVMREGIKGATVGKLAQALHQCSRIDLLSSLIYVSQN

[2] = target: T2, Receptor-interacting serine/threonine-protein kinase 1 (Homo sapiens) (UniProt Q13546); experiment: Inhibition of RIPK1 phosphorylation in TSZ-induced human HT-29 cells at 20 nM pretreated with compound followed by TSZ stimulation and measured after 2 to 6 hrs by immunoblotting analysis; assay type: cell-based; details: time 2-6 hrs
T2 sequence (whole entry): T1 sequence (Q13546 whole entry)

[3] = target: Receptor-interacting serine/threonine-protein kinase 3 (Homo sapiens) (UniProt Q9Y572); experiment: Inhibition of RIPK3 phosphorylation in TSZ-induced human HT-29 cells at 5 to 20 nM pretreated with compound followed by TSZ stimulation and measured after 6 hrs by immunoblotting analysis; assay type: cell-based; details: dose 5-20 nM
[4] = target: T3, Mixed lineage kinase domain-like protein (Homo sapiens) (UniProt Q8NB16); experiment: Inhibition of MLKL phosphorylation in TSZ-induced human HT-29 cells at 5 to 20 nM pretreated with compound followed by TSZ stimulation and measured after 6 hrs by immunoblotting analysis; assay type: cell-based; details: dose 5-20 nM
T3 sequence (whole entry): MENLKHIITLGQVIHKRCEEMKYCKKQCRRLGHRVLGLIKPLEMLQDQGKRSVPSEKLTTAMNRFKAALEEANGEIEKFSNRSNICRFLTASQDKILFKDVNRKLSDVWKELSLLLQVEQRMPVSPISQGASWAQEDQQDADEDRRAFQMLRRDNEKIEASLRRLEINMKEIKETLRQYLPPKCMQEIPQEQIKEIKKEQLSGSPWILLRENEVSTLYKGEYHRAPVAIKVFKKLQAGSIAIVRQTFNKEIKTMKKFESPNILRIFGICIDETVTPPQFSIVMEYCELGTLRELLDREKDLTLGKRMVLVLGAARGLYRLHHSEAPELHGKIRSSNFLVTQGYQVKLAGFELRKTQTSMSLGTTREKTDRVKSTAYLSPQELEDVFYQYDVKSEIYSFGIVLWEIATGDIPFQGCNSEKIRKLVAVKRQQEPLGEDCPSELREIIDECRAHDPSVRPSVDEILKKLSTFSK

[5] = tested on: U-937; experiment: Anti-necroptic activity in human U-937 cells assessed as inhibition of TSZ induced necroptosis pretreated with compound followed by TSZ addition ans measured after 12 hrs by celltiter-glo luminescent cell viability assay; assay type: functional, cell-based; details: dose 0.312-200 nM, DDE = dose-dependent effect
[6] = target: Receptor-interacting serine/threonine-protein kinase 3 (Homo sapiens) (UniProt Q9Y572); experiment: Inhibition of RIPK3 phosphorylation in TSZ-induced human HT-29 cells at 20 nM pretreated with compound followed by TSZ stimulation and measured after 2 to 6 hrs by immunoblotting analysis; assay type: cell-based; details: time 2-6 hrs
[7] = tested on: HT-29; experiment: Inhibition of RIPK1-RIPK3-MLKL pathway in TSZ induced human HT-29 cells assessed as reduction in necrosome formation at 20 nM measured after 6 hrs by Western blot analysis; assay type: cell-based
[8] = target: T2, Receptor-interacting serine/threonine-protein kinase 1 (Homo sapiens); experiment: Inhibition of RIPK1 phosphorylation in TSZ-induced human HT-29 cells at 5 to 20 nM pretreated with compound followed by TSZ stimulation and measured after 6 hrs by immunoblotting analysis; assay type: cell-based; details: dose 5-20 nM
[9] = tested on: L929; experiment: Anti-necroptic activity in mouse L929 cells assessed as inhibition of TZ induced necroptosis pretreated with compound followed by TZ addition and measured after 12 hrs by celltiter-glo luminescent cell viability assay; assay type: functional, cell-based; details: dose 0.078-10 µM, DDE = dose-dependent effect
[10] = tested on: Mus musculus; experiment: Anti-necroptic activity against mTNFalpha-induced systemic inflammatory response syndrome C57BL/6J mouse model assessed as protection of body temperature pretreated with compound at 5 to 20 mg/kg, IG administered as single dose followed by mTNFalpha injection measured after 2 to 3 hrs; assay type: functional, organism-based; details: dose 5-20 mg/kg, time 2-3 hrs
[11] = tested on: HT-29; experiment: Anti-necroptic activity in human HT-29 cells assessed as inhibition of TSZ induced necroptosis measured after 12 hrs by celltiter-glo luminescent cell viability assay; assay type: functional, cell-based; details: dose 0.195-200 nM, DDE = dose-dependent effect
[12] = target: Receptor-interacting serine/threonine-protein kinase 3 (Homo sapiens) (UniProt Q9Y572); experiment: Inhibition of RIPK3 phosphorylation in TSZ-induced human HT-29 cells pretreated with compound followed by TSZ stimulation and measured after 6 hrs by immunoblotting analysis; assay type: cell-based; details: dose 0.5-20 nM, DDE = dose-dependent effect
[13] = tested on: Mus musculus; experiment: Anti-necroptic activity against mTNFalpha induced C57BL/6J mouse systemic inflammatory response syndrome model assessed as survival rate pretreated with compound at 5 to 20 mg/kg, IG administered as single dose followed by mTNFalpha injection and measured over 60 hrs; assay type: functional; details: dose 5-20 mg/kg
[14] = Cytotoxicity against human HT-29 cells assessed as reduction in cell viability; assay type: toxicity, cell-based
[15] = target: T3, Mixed lineage kinase domain-like protein (Homo sapiens); experiment: Inhibition of downstream MLKL phosphorylation in TSZ-induced human HT-29 cells at 20 nM pretreated with compound followed by TSZ stimulation and measured after 2 to 6 hrs by immunoblotting analysis; assay type: cell-based; details: time 2-6 hrs
[16] = target: T3, Mixed lineage kinase domain-like protein (Homo sapiens); experiment: Inhibition of MLKL phosphorylation in TSZ-induced human HT-29 cells pretreated with compound followed by TSZ stimulation and measured after 6 hrs by immunoblotting analysis; assay type: cell-based; details: dose 0.5-20 nM, DDE = dose-dependent effect
[17] = tested on: HT-29; experiment: Anti-necroptic activity in human HT-29 cells assessed as inhibition of TCZ induced necroptosis measured after 16 hrs by celltiter-glo luminescent cell viability assay; assay type: functional, cell-based; details: dose 0.781-200 nM, DDE = dose-dependent effect
[18] = target: T2, Receptor-interacting serine/threonine-protein kinase 1 (Homo sapiens); experiment: Inhibition of RIPK1 phosphorylation in TSZ-induced human HT-29 cells pretreated with compound followed by TSZ stimulation and measured after 6 hrs by immunoblotting analysis; assay type: cell-based; details: dose 0.5-20 nM, DDE = dose-dependent effect
[19] = tested on: HT-29; experiment: Anti-necroptic activity in human HT-29 cells assessed as inhibition of TSZ induced necroptosis measured after 16 to 24 hrs by celltiter-glo luminescent cell viability assay; assay type: functional, cell-based
[20] = target: T3, Mixed lineage kinase domain-like protein (Homo sapiens); experiment: Inhibition of downstream MLKL phosphorylation in TSZ-induced human HT-29 cells at 10 nM pretreated with compound followed by TSZ stimulation and measured after 2 to 6 hrs by immunoblotting analysis; assay type: cell-based; details: time 2-6 hrs
[21] = target: T2, Receptor-interacting serine/threonine-protein kinase 1 (Homo sapiens); experiment: Inhibition of RIPK1 phosphorylation in TSZ-induced human HT-29 cells at 2 to 4 nM pretreated with compound followed by TSZ stimulation and measured after 6 hrs by immunoblotting analysis; assay type: cell-based; details: dose 2-4 nM
[22] = target: T3, Mixed lineage kinase domain-like protein (Homo sapiens); experiment: Inhibition of MLKL phosphorylation in TSZ-induced human HT-29 cells at 2 to 4 nM pretreated with compound followed by TSZ stimulation and measured after 6 hrs by immunoblotting analysis; assay type: cell-based; details: dose 2-4 nM
[23] = tested on: Mus musculus; experiment: Anti-necroptic activity against mTNFalpha-induced systemic inflammatory response syndrome C57BL/6J mouse model assessed as protection of body temperature pretreated with compound at 5 to 15 mg/kg, IG administered as single dose followed by mTNFalpha injection measured after 2 to 3 hrs; assay type: functional, organism-based; details: dose 5-15 mg/kg, time 2-3 hrs
[24] = tested on: HT-29; experiment: Inhibition of RIPK1-RIPK3-MLKL pathway in TSZ induced human HT-29 cells assessed as reduction in necrosome formation at 10 nM measured after 6 hrs by Western blot analysis; assay type: cell-based
[25] = tested on: Mus musculus; experiment: Anti-necroptic activity against mTNFalpha induced C57BL/6J mouse systemic inflammatory response syndrome model assessed as survival rate pretreated with compound at 10 mg/kg, IG administered as single dose followed by mTNFalpha injection and measured over 60 hrs; assay type: functional
[26] = tested on: Mus musculus; experiment: Anti-necroptic activity against mTNFalpha induced C57BL/6J mouse systemic inflammatory response syndrome model assessed as survival rate pretreated with compound at 5 mg/kg, IG administered as single dose followed by mTNFalpha injection and measured over 60 hrs; assay type: functional
[27] = target: Receptor-interacting serine/threonine-protein kinase 3 (Homo sapiens) (UniProt Q9Y572); experiment: Inhibition of RIPK3 phosphorylation in TSZ-induced human HT-29 cells at 10 nM pretreated with compound followed by TSZ stimulation and measured after 2 to 6 hrs by immunoblotting analysis; assay type: cell-based; details: time 2-6 hrs
[28] = target: T2, Receptor-interacting serine/threonine-protein kinase 1 (Homo sapiens); experiment: Inhibition of RIPK1 phosphorylation in TSZ-induced human HT-29 cells at 10 nM pretreated with compound followed by TSZ stimulation and measured after 2 to 6 hrs by immunoblotting analysis; assay type: cell-based; details: time 2-6 hrs
[29] = target: Receptor-interacting serine/threonine-protein kinase 3 (Homo sapiens) (UniProt Q9Y572); experiment: Inhibition of RIPK3 phosphorylation in TSZ-induced human HT-29 cells at 2 to 4 nM pretreated with compound followed by TSZ stimulation and measured after 6 hrs by immunoblotting analysis; assay type: cell-based; details: dose 2-4 nM
[30] = tested on: Mus musculus; experiment: Anti-necroptic activity against mTNFalpha induced C57BL/6J mouse systemic inflammatory response syndrome model assessed as survival rate pretreated with compound at 15 mg/kg, IG administered as single dose followed by mTNFalpha injection and measured over 60 hrs; assay type: functional

Receptor-interacting serine/threonine-protein kinase 3 (Homo sapiens), sequence (Q9Y572 whole entry, looked up, the tested form may be a part): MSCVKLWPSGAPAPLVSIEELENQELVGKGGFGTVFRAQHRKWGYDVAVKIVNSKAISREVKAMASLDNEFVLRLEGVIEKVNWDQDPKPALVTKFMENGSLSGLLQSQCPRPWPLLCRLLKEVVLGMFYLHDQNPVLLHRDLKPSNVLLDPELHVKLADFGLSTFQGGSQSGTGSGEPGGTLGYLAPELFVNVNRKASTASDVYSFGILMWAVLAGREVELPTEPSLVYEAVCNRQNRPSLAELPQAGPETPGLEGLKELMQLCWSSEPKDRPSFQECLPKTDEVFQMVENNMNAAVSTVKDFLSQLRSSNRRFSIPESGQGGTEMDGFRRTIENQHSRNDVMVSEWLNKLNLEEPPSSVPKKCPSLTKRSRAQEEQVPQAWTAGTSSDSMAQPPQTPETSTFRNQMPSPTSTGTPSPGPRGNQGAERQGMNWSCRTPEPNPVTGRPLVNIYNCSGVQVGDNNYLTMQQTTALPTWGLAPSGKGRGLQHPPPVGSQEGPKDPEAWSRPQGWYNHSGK

SMILES	Kd [1]	Activity [5]	Activity [9]	Activity [11]	inhibition [12]	CC50 [14]	inhibition [16]	Activity [17]	inhibition [18]	EC50 [19]	other results
CN1C(=S)[C@@H](NC(=O)c2nc(Cc3ccccc3)n(CCF)n2)COc2ccccc21	60 nM	Dde	Dde	Dde	Dde	> 100000 nM	Dde	Dde	Dde	8.9 nM	inhibition [2]: 100%; inhibition [3]: 100%; inhibition [4]: 100%; inhibition [6]: 100%; inhibition [7]: Active; inhibition [8]: 100%; Activity [10]: Active; Activity [13]: 90%; inhibition [15]: Active
CN1C(=S)[C@@H](NC(=O)c2nc(Cc3ccccc3)n(C)n2)COc2ccccc21	31 nM	Dde	Dde	Dde	Dde	> 100000 nM	Dde	Dde	Dde	2.5 nM	inhibition [20]: Active; inhibition [21]: 100%; inhibition [22]: 100%; Activity [23]: Active; inhibition [24]: Active; Activity [25]: 100%; Activity [26]: 70%; inhibition [27]: 100%; inhibition [28]: 100%; inhibition [29]: 100%; Activity [30]: 100%
